According to patent US9107396B2, “Stabilized synthetic brood pheromone and race-specific ratios of components for manipulating the behavior and physiology of honey bees” (OMS Investments, Inc., priority 2006, dated 2015):

Experiment: Chemical stability of simplified brood pheromone ester blends exposed to air, capillary gas chromatography
Assay type: physicochemical
Settings: for time for which the component remained intact: with antioxidant stabilizer tertiary-butylhydroquinone; for proportional composition of the total blend at start: two-week test; for percentage composition at start / percentage composition after 72 weeks: unstabilized five-component ethyl ester blend; for percentage composition at start: 72-week test
Protocol: Short-term and long-term stability studies were conducted, with simplified blends of potentially unstable brood pheromone components mixed in approximately the same proportions as in Example 1. Short-term evaluation for a two-week duration was done on blends of methyl oleate, methyl linoleate and methyl linolenate, and ethyl oleate, ethyl linoleate and ethyl linolenate, each with and without tertiary-butylhydroquinone. Twenty-week tests were done with identical blends as for the two-week experiments, but 72-week tests had methyl and ethyl palmitate and stearate added in the appropriate proportions to their respective blends. Approximately 250 mg of a blend was placed in a 4 mL (15×45 mm) plastic vial (Chromatographic Specialties) fitted with a diffusion insert screw cap (Agilent Technologies) with a 1 mm diameter hole to allow air circulation over the sample. All blends were continuously held at a constant temperature of 30° C.
For analysis by capillary gas chromatography, approximately 1 mg of a blend was dissolved in 1 mL of diethyl ether, and a 1 μL aliquot of each extract was analyzed. Analyses were done at time zero and after the given duration of exposure to air at 30° C., using a Hewlett Packard HP5890 gas chromatograph equipped with a flame ionization detector and a 30 m long BPX-70 capillary column (J&W Scientific). The injector and detector temperatures were 260° C. and 285° C., respectively. The temperature program was 80° C. rising at 5° C. per min for 24 min to 200° C., and then rising at 20° C. per min for 3 min to 260° C.
Two-week results are given for methyl and ethyl esters (FIGS. 1 and 2), while long-term 20-week and 72-week results are given for only ethyl esters (FIGS. 3 and 4). Long-term results for methyl esters were virtually identical to those for the ethyl esters.

[1] = unstabilized blend, after two weeks exposure to air
[2] = unstabilized blend, before exposure

| Structure (SMILES) | decrease in amount of component in the unstabilized blend (2 weeks) | time for which the component remained intact | percentage composition at start (before exposure) | percentage composition after 72 weeks | other results |
| --- | --- | --- | --- | --- | --- |
| CCCCC/C=C\C/C=C\CCCCCCCC(=O)OCC [ethyl linoleate] | 74% | 72 weeks |  |  | component remaining in the unstabilized blend after 20 weeks (3360 h): no ethyl linoleate; component remaining in the unstabilized blend after 72 weeks (12096 h): complete breakdown |
| CC/C=C\C/C=C\C/C=C\CCCCCCCC(=O)OCC [ethyl linolenate] |  | 72 weeks |  |  | decrease in amount of component in the unstabilized blend [1]: 94%; component remaining in the unstabilized blend after 20 weeks (unstabilized ethyl ester blend, 20 weeks): no ethyl linolenate remained; component remaining in the unstabilized blend after 72 weeks (unstabilized ethyl ester blend, 72 weeks): complete breakdown |
| CCCCCCCCCCCCCCCC(=O)OCC [ethyl palmitate] |  |  | 8% | 20% |  |
| CCCCC/C=C\C/C=C\CCCCCCCC(=O)OC [methyl linoleate] | 85% | 72 weeks |  |  |  |
| CCCCCCCC/C=C\CCCCCCCC(=O)OC [methyl oleate] |  | 72 weeks |  |  | proportional composition of the total blend after two weeks [1]: 82%; proportional composition of the total blend at start [2]: 48% |

Further lines, with some results ahead:

| decrease in amount of component in the unstabilized blend (2 weeks) | time for which the component remained intact | percentage composition at start (before exposure) | percentage composition after 72 weeks | Structure (SMILES) | other results |
| --- | --- | --- | --- | --- | --- |
|  | 72 weeks | 24% | 10% | CCCCCCCC/C=C\CCCCCCCC(=O)OCC [ethyl oleate] | proportional composition of the total blend after two weeks [1]: 66%; proportional composition of the total blend at start [2]: 40%; proportion of the total blend at start (unstabilized ethyl ester blend, 20-week test, before exposure): 37%; proportion of the total blend after 20 weeks (unstabilized ethyl ester blend, after 20 weeks): 43% |
|  |  | 23% | 57% | CCCCCCCCCCCCCCCCCC(=O)OCC [ethyl stearate] |  |
| 90% | 72 weeks |  |  | CC/C=C\C/C=C\C/C=C\CCCCCCCC(=O)OC [methyl linolenate] |  |
